From ChEMBL document CHEMBL5050843, “Amide substituted thiazoles as protein secretion inhibitors” (2019) come the findings set out here.

A short description of experiment [1]: Inhibition of constitutively active PR1ss-Gluc secretion in human Flp-In-T-REx-293 cells measured by Gaussia luciferase reporter gene method. Format: functional, cell-based.
Experiment [2] can be described thus: Inhibition of constitutively active VCAMss-Gluc secretion in human Flp-In-T-REx-293 cells measured by Gaussia luciferase reporter gene method. In kind it is functional, cell-based. (In a reporter assay the amount or activity of a reporter protein is the signal.)

Consider `CC(C)(C)c1csc(NC(=O)Cc2cccs2)n1`, for which the IC50 – broadly, the concentration at which inhibition is half-maximal – is over 80 µM in experiment [1] and 5.7 µM in experiment [2]. The corresponding values for `CC(C(=O)Nc1nc(C(C)(C)C)cs1)c1csc2ccc(Cl)cc12` (stereo not given) are over 25 µM and 3.21 µM. The corresponding values for `CC(C)(C)c1csc(NC(=O)c2cc3ccccc3o2)n1` are over 25 µM and 23.8 µM. Regarding `CC(C)(C)c1csc(NC(=O)C(C)(C)c2ccccc2)n1`, the half-maximal inhibitory concentration (IC50) in experiment [1] was over 25 µM; in experiment [2], 14.7 µM. For `CC(C)(C)c1csc(NC(=O)c2cc3c(Cl)cccc3s2)n1`, in that order: over 25 µM and 5.7 µM. `CC(C)(C)c1csc(NC(=O)Cc2csc3ccccc23)n1`: the values for the IC50 in experiment [1] and in experiment [2] were over 25 µM and 1.76 µM, respectively. Turning to `CC(C)(C)c1csc(NC(=O)CN2CCOCC2)n1`, the IC50 in experiment [1] and in experiment [2] was over 25 µM each time. With `CC(C)(C)c1csc(NC(=O)c2cccnn2)n1`, the IC50 in experiment [1] and in experiment [2] was over 25 µM each time.

Turning to `Cc1cccc2scc(CC(=O)Nc3nc(C(C)(C)C)cs3)c12`, the IC50 in experiment [1] was over 25 µM; in experiment [2], 3.2 µM. In the case of `CC(C)(C)c1csc(NC(=O)CC2CCCc3ccccc32)n1` (stereo not given), the values for the IC50 in experiment [1] and in experiment [2] were over 25 µM and 9.01 µM, respectively. The corresponding values for `C=CCC(C)(C)c1csc(NC(=O)Cc2csc3ccc(Cl)cc23)n1` are over 25 µM and 0.775 µM.

As for `CC(C)(C)c1csc(NC(=O)c2cccc(N3CCCC3)c2)n1`, the IC50 in experiment [1] and in experiment [2] was over 25 µM throughout. For the molecule `CC(C)(C)c1csc(NC(=O)c2cccc(CN3CCOCC3)c2)n1`, the IC50 in experiment [1] and in experiment [2] was over 25 µM throughout. On to `CC(C)(C)c1csc(NC(=O)C2CCc3ccccc3C2)n1` (stereo not given), for which the IC50 in experiment [1] is over 25 µM; in experiment [2], 11.8 µM. The corresponding values for `CC(C)(C)c1csc(NC(=O)CCc2ccccc2)n1` are over 25 µM and 17.4 µM.

On to `Cc1c(C(=O)Nc2nc(C(C)(C)C)cs2)sc2ccc(Cl)cc12`, for which the IC50 in experiment [1] and in experiment [2] was over 25 µM throughout. As for `O=C(Cc1csc2ccc(Cl)cc12)Nc1nc(Cc2ccccc2)cs1`, the figures for the IC50 in experiment [1] and in experiment [2] were over 25 µM and 19.9 µM, respectively.

As to `CCc1csc(NC(=O)c2csc(C)c2)n1`, the IC50 in experiment [1] and in experiment [2] was over 25 µM in each case.

In the case of `C#Cc1ccc2sc(C(=O)Nc3nc(C(C)(C)C)cs3)cc2c1`, the IC50 in experiment [1] and in experiment [2] was over 25 µM in each case. Take `CC(C)(C)c1csc(NC(=O)c2ccc3c(c2)CCCO3)n1`: the IC50 was over 25 µM in experiment [1] and 6.09 µM in experiment [2].

`CC(C)(C)c1csc(NC(=O)Cc2cccc(Cl)c2)n1`: the IC50 is over 25 µM in experiment [1] and 7.85 µM in experiment [2]. The corresponding values for `COc1cccc(C(=O)Nc2nc(C(C)(C)C)cs2)c1` are over 25 µM and over 25 µM. The corresponding values for `CC(C)(C)c1csc(NC(=O)c2csc3ccccc23)n1` are over 25 µM and 22.6 µM. For `CC(C)(C)c1csc(NC(=O)c2sc3ccccc3c2Cl)n1`, in that order: over 25 µM and over 25 µM. As to `CC(C)(C)c1csc(NC(=O)c2ccc3cn[nH]c3c2)n1`, the IC50 in experiment [1] and in experiment [2] was over 25 µM in each case. On to `CC(C)(C)c1csc(NC(=O)CC2CCCCCC2)n1`, for which the IC50 in experiment [1] is over 25 µM; in experiment [2] it was 5.07 µM. As for `CC(C)(C)c1csc(NC(=O)Cc2cc(Cl)cc(Cl)c2)n1`, the half-inhibitory concentration (IC50) was over 25 µM in experiment [1] and 1.69 µM in experiment [2]. The corresponding values for `CC(C)(C)c1csc(NC(=O)c2cc3cc(C(N)=O)ccc3s2)n1` are over 25 µM and over 25 µM. As to `CC(C)(C)c1csc(NC(=O)c2cc3cccc(Cl)c3s2)n1`, the IC50 in experiment [1] is over 25 µM; in experiment [2], 3.22 µM. For `CC(C)(C)c1csc(NC(=O)C2(c3cccc(Cl)c3)CCCC2)n1`, in that order: over 25 µM and 8.15 µM.

For `CC(C)(C)c1csc(NC(=O)c2ncn[nH]2)n1`, the half-maximal inhibitory concentration (IC50) in experiment [1] and in experiment [2] was over 25 µM in each case.

In the case of `CC(C)(C)c1csc(NC(=O)c2cc3cc(C4CCCC4)ccc3s2)n1`, the IC50 in experiment [1] and in experiment [2] was over 25 µM in each case. As to `CC(C)(C)c1csc(NC(=O)C(C)(C)c2cccc(Cl)c2)n1`, the IC50 was over 25 µM in experiment [1] and 8.6 µM in experiment [2]. For `CC(C)(C)c1csc(NC(=O)c2cccc(Cl)c2)n1`, in that order: over 25 µM and 8.4 µM. Take `CC(C)(C)c1csc(NC(=O)C2=CCCCC2)n1`: the IC50 in experiment [1] was over 25 µM; in experiment [2], 23.7 µM. The corresponding values for `CC(C)(C)c1csc(NC(=O)CCc2csc3ccccc23)n1` are over 25 µM and 23.1 µM.

Take `CC(C)(C)c1csc(NC(=O)c2cc3ccc(Cl)cc3s2)n1`: the IC50 in experiment [1] and in experiment [2] was over 25 µM throughout. `Cc1cc(C(=O)Nc2nc(C3CC3)cs2)cs1`: the IC50 in experiment [1] and in experiment [2] was over 25 µM in each case.

As for `CC(C)(C)c1csc(CNC(=O)Cc2csc3ccccc23)n1`, the IC50 in experiment [1] and in experiment [2] was over 25 µM throughout.

In the case of `CC(C)(C)c1csc(NC(=O)c2cc3cc(C4=CCCC4)ccc3s2)n1`, the IC50 in experiment [1] and in experiment [2] was over 25 µM in each case.

As to `CC(C)(C)c1csc(NC(=O)C(C)(C)c2ccc(Cl)c(Cl)c2)n1`, the IC50 was over 25 µM in experiment [1] and 6.49 µM in experiment [2]. Consider `CC(C)(C)c1csc(NC(=O)Cc2cn(Cc3cccnc3)c3ccc(Cl)cc23)n1`, for which the results for the IC50 in experiment [1] and in experiment [2] were over 25 µM and 3.67 µM, respectively. As for `CC(C)(C)c1csc(NC(=O)Cc2cccc(C#N)c2)n1`, the IC50 in experiment [1] was over 25 µM; in experiment [2] it was 15.4 µM. For `CC(C)(C)c1csc(NC(=O)c2scc3c2CCCC3)n1`, the IC50 in experiment [1] and in experiment [2] was over 25 µM in each case.

Take `CC(C)(C)c1csc(NC(=O)c2cc3cc(Cl)ccc3s2)n1`: the values for the IC50 in experiment [1] and in experiment [2] were over 25 µM and 9.27 µM, respectively. As for `CC(C)(C)c1csc(NC(=O)Cc2cn(Cc3ccc(Cl)cc3)c3ccc(Cl)cc23)n1`, the figures for the IC50 in experiment [1] and in experiment [2] were over 25 µM and 0.325 µM, respectively. The corresponding values for `CC(C)(C)c1csc(NC(=O)CC2CCOCC2)n1` are over 25 µM and over 25 µM.

Turning to `CC(C)(C)c1csc(NC(=O)Cc2ccc3cn[nH]c3c2)n1`, the IC50 in experiment [1] and in experiment [2] was over 25 µM each time. Regarding `CC(C)(C)c1csc(NC(=O)c2ccccc2Cl)n1`, the IC50 in experiment [1] and in experiment [2] was over 25 µM in each case. On to `CC[C@@H](C(=O)Nc1nc(C(C)(C)C)cs1)c1ccccc1`, for which the IC50 in experiment [1] is over 25 µM; in experiment [2], 9.54 µM.

`CC(C)(C)c1csc(NC(=O)C2CCCC2)n1`: the results for the IC50 in experiment [1] and in experiment [2] were over 25 µM and 17 µM, respectively. The corresponding values for `Cc1csc(C(=O)Nc2nc(C(C)(C)C)cs2)c1` are over 25 µM and 17.1 µM. Turning to `CC1(c2csc(NC(=O)Cc3cn(Cc4ccccc4)c4ccc(Cl)cc34)n2)CC1`, the IC50 is over 25 µM in experiment [1] and 0.908 µM in experiment [2]. The corresponding values for `CC(C)(C)c1csc(NC(=O)Cc2cn(Cc3cccc(Cl)c3)c3ccc(Cl)cc23)n1` are over 25 µM and 0.464 µM.

With `CCCCCc1ccc2sc(C(=O)Nc3nc(C(C)(C)C)cs3)cc2c1`, the results for the IC50 in experiment [1] and in experiment [2] were over 25 µM and 8.14 µM, respectively. As for `CC(C)(C)c1csc(NC(=O)Cc2cn(C(=O)c3ccccc3)c3ccc(Cl)cc23)n1`, the IC50 was over 25 µM in experiment [1] and 2.05 µM in experiment [2]. Regarding `CC(C)(C)c1csc(NC(=O)C(C)(C)C2CCCCC2)n1`, the concentration for half-maximal inhibition (IC50) is over 25 µM in experiment [1] and 9.01 µM in experiment [2].

As for `CC(C)(C)c1csc(NC(=O)Cc2cn(CC3CCCCC3)c3ccc(Cl)cc23)n1`, the IC50 is over 25 µM in experiment [1] and 0.714 µM in experiment [2]. The corresponding values for `CC(C)(C)c1csc(NC(=O)Cc2cn(Cc3ccccn3)c3ccc(Cl)cc23)n1` are over 25 µM and 2.08 µM. The corresponding values for `CC(C)(C)c1csc(NC(=O)C(Cc2ccccc2)c2csc3ccc(Cl)cc23)n1` (stereo not given) are over 25 µM and 3.92 µM. `CC(C)(C)c1csc(NC(=O)c2cc3cc(C4=CCCCC4)ccc3s2)n1`: the results for the IC50 in experiment [1] and in experiment [2] were over 25 µM and 16.2 µM, respectively. For `CC(C)(C)c1csc(NC(=O)c2ccccc2)n1`, in that order: over 80 µM and 10.4 µM. For `CC(C)(C)c1csc(NC(=O)Cc2ccccc2)n1`, the IC50 in experiment [1] was over 25 µM; in experiment [2], 24.1 µM. Consider `CC(C)(C)c1csc(NC(=O)Cc2cccc(S(C)(=O)=O)c2)n1`, for which the IC50 in experiment [1] and in experiment [2] was over 25 µM each time. As for `CC(C)(C)c1csc(NC(=O)Cc2ccccc2Cl)n1`, the IC50 in experiment [1] is over 25 µM; in experiment [2], 18.4 µM.

As for `CC(C)(C)c1csc(NC(=O)c2ccc3c(c2)OCCN3)n1`, the IC50 in experiment [1] and in experiment [2] was over 25 µM each time. With `CC(C)(C)c1csc(NC(=O)c2cc3ccccc3s2)n1`, the half-inhibitory concentration (IC50) in experiment [1] is over 25 µM; in experiment [2], 4.93 µM.

Take `CC(C)CC(C(=O)Nc1nc(C(C)(C)C)cs1)c1csc2ccc(Cl)cc12` (stereo not given): the values for the IC50 in experiment [1] and in experiment [2] were over 25 µM and 6.53 µM, respectively. In the case of `CC(C)(C)c1csc(NC(=O)CC2CCCCC2)n1`, the IC50 in experiment [1] is over 25 µM; in experiment [2], 6.09 µM. On to `Cc1ccc(C(=O)Nc2nc(C(C)(C)C)cs2)s1`, for which the IC50 is over 25 µM in experiment [1] and 7.65 µM in experiment [2]. For `CC(C)(C)c1csc(NC(=O)Cc2cccnc2)n1`, in that order: over 25 µM and over 25 µM. Regarding `CC(C)(C)c1csc(NC(=O)C2CCCc3ccccc32)n1` (stereo not given), the IC50 in experiment [1] and in experiment [2] was over 25 µM throughout. As to `CC(C)(C)c1csc(NC(=O)Cc2ccc3ccccc3c2)n1`, the figures for the IC50 in experiment [1] and in experiment [2] were over 25 µM and 15 µM, respectively. `CC(C)(C)c1csc(NC(=O)Cn2ccc3ccccc32)n1`: the IC50 is over 25 µM in experiment [1] and 8.75 µM in experiment [2]. The molecule `Cc1cc(C(=O)Nc2nc(C(C)C)cs2)cs1` displayed an IC50 in experiment [2] of 22.8 µM. On the same count and under the same terms, then `Cn1cc(C(=O)Nc2nc(C(C)(C)C)cs2)cn1`, with 22.2 µM.
